Results reported in article PMC4167585 (Cell, 2014).

Tests used:
[1] = molecular target: T1, human microsomal GST (MGST1) (Homo sapiens, UniProt P10620); experiment: GST activity toward CDNB; assay type: biochemical; conditions: GSH co-substrate
T1 sequence (P10620 1-155): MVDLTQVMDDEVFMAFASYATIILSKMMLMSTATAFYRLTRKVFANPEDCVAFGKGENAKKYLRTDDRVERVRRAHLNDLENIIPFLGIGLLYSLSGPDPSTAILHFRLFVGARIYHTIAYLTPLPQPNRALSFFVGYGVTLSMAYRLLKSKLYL

[2] = tested on: C=CC1=C(C)C2=Cc3c(C=C)c(C)c4[n]3[Fe+][n]3c(c(C)c(CCC(=O)O)c3=CC3=NC(=C4)C(C)=C3CCC(=O)O)=CC1=N2; experiment: purified protein; conditions: 2 mM GSH, 100 nM enzyme, pH 6.5, 0.1% Triton X-100
[3] = molecular target: EXP1 (Plasmodium falciparum, UniProt Q8IIF0); experiment: inhibition of GSH-CDNB conjugation, Dixon plot; assay type: biochemical

In the case of `O=[N+]([O-])c1ccc(Cl)c([N+](=O)[O-])c1` [1-chloro-2,4-dinitrobenzene], the “GST activity toward CDNB” value [1] is reported as “comparable to that of the human microsomal GST (MGST1, Figure S3D-F)”.

Work on EXP1 (Plasmodium falciparum 3D7) yielded a Km [2] of 0.251 µM and a kcat [2] of 7.7 s⁻¹.

In the case of `C=CC1=C(C)C2=Cc3c(C=C)c(C)c4[n]3[Fe+][n]3c(c(C)c(CCC(=O)O)c3=CC3=NC(=C4)C(C)=C3CCC(=O)O)=CC1=N2` [hematin], the Ki [3] is reported as 170 nM.
